Test results: ChEMBL document CHEMBL1649363, “Nitropyrrolins A-E, cytotoxic farnesyl-α-nitropyrroles from a marine-derived bacterium within the actinomycete family Streptomycetaceae” (J Nat Prod, 2010); call rule not given here
In brackets after ≈: the same amount, converted by molar mass.

Legend:
[1] = tested on: Staphylococcus aureus; test: Antibacterial activity against methicillin-resistant Staphylococcus aureus; type: functional
[2] = tested on: HCT-116; test: Cytotoxicity against human HCT116 cells; type: functional, cell-based
[3] = Homo sapiens, HCT-116, read-out: IC50

Structure (SMILES)	MIC [1]	IC50 [2, 3]	IC50 ([2]; hct-116)
CC(C)=CCC/C(C)=C\CC/C(C)=C\Cc1cc[nH]c1	2.8 µg/mL (≈ 10.3 µM)	13.7 µM	
CC(C)=CCC/C(C)=C\CC/C(C)=C\Cc1c[nH]c([N+](=O)[O-])c1	> 20 µg/mL	9.2 µM	
O=[N+]([O-])c1ccc[nH]1	> 20 µg/mL		Not Active
O=[N+]([O-])c1cc[nH]c1	> 20 µg/mL		Not Active
CC(C)=CCC/C(C)=C\CC/C(C)=C\Cc1ccc[nH]1	> 20 µg/mL	24.4 µM	
CC(C)=CCC/C(C)=C/CC[C@](C)(O)[C@H](O)Cc1c[nH]c([N+](=O)[O-])c1 [NITROPYRROLIN A]	> 20 µg/mL	31.1 µM	
CC(C)=CCC/C(C)=C/CC[C@@]1(C)O[C@@H]1Cc1c[nH]c([N+](=O)[O-])c1 [NITROPYRROLIN B]	> 20 µg/mL	31 µM	
CC(C)=CCC/C(C)=C/CC[C@@](C)(Cl)[C@H](O)Cc1c[nH]c([N+](=O)[O-])c1 [NITROPYRROLIN C]	> 20 µg/mL		Not Active
CC(C)=CCC/C(C)=C/C/C=C(\C)[C@H](O)Cc1c[nH]c([N+](=O)[O-])c1 [NITROPYRROLIN D]	> 20 µg/mL	5.7 µM	
C/C(=C\CC[C@@](C)(Cl)[C@H](O)Cc1c[nH]c([N+](=O)[O-])c1)CC[C@@H](O)C(C)(C)O [NITROPYRROLIN E]	> 20 µg/mL		Not Active
